The values below are quoted from earlier work in PMC2788793 (Molecular immunology, 2008).

This series concerns the target mouse H2-Kb molecule (Mus musculus, UniProt P01901). The note with it: ref Apostolopoulos et al., 2003.

Sequence of mouse H2-Kb molecule (P01901 whole entry, looked up): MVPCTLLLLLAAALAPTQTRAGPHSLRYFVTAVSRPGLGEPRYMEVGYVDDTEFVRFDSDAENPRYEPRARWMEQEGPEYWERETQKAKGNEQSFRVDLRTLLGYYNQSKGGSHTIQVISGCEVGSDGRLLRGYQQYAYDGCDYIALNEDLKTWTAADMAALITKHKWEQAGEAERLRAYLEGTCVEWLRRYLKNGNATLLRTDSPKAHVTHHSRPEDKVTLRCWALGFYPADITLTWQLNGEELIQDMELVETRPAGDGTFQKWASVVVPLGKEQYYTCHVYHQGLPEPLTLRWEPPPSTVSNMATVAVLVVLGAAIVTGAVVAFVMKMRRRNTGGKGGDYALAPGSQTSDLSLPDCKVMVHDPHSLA

Take SAPDT(GalNAc-Gal)RPA: the “Binding to mouse H2-Kb molecule” value is listed as “completely abolished its binding”.
